Experiments:
Assay type in all cases: functional
[1] = system: KM12; test: Growth inhibition of human KM12 cells assessed as cell growth at 5X10'-9 M after 48 hrs by sulforhodamine B assay; conditions: KM12, 48 h, read-out: Activity
[2] = Growth inhibition of human HCC2998 cells assessed as cell growth at 5X10'-9 M after 48 hrs by sulforhodamine B assay; conditions: HCC 2998, 48 h, read-out: Activity
[3] = system: SNB-75; test: Growth inhibition of human SNB75 cells assessed as cell growth at 5X10'-5 M after 48 hrs by sulforhodamine B assay; conditions: SNB-75, 48 h, read-out: Activity
[4] = system: SNB-19; test: Growth inhibition of human SNB19 cells assessed as cell growth at 5X10'-5 M after 48 hrs by sulforhodamine B assay; conditions: SNB-19, 48 h, read-out: Activity
[5] = system: HOP-92; test: Growth inhibition of human HOP92 cells assessed as cell growth at 5X10'-5 M after 48 hrs by sulforhodamine B assay; conditions: HOP-92, 48 h, read-out: Activity
[6] = system: HL-60(TB); test: Growth inhibition of human HL-60(TB) cells assessed as cell growth at 5X10'-5 M after 48 hrs by sulforhodamine B assay; conditions: HL-60, 48 h, read-out: Activity
[7] = system: TK-10; test: Growth inhibition of human TK10 cells assessed as cell growth at 5X10'-6 M after 48 hrs by sulforhodamine B assay; conditions: TK-10, 48 h, read-out: Activity
[8] = system: OVCAR-8; test: Growth inhibition of human OVCAR8 cells assessed as cell growth at 5X10'-6 M after 48 hrs by sulforhodamine B assay; conditions: OVCAR-8, 48 h, read-out: Activity
[9] = system: OVCAR-3; test: Growth inhibition of human OVCAR3 cells assessed as cell growth at 5X10'-6 M after 48 hrs by sulforhodamine B assay; conditions: OVCAR-3, 48 h, read-out: Activity
[10] = system: SK-MEL-5; test: Growth inhibition of human SK-MEL-5 cells assessed as cell growth at 5X10'-6 M after 48 hrs by sulforhodamine B assay; conditions: SK-MEL-5, 48 h, read-out: Activity
[11] = system: HOP-92; test: Growth inhibition of human HOP92 cells assessed as cell growth at 5X10'-9 M after 48 hrs by sulforhodamine B assay; conditions: HOP-92, 48 h, read-out: Activity
[12] = system: HOP-62; test: Growth inhibition of human HOP62 cells assessed as cell growth at 5X10'-9 M after 48 hrs by sulforhodamine B assay; conditions: HOP-62, 48 h, read-out: Activity
[13] = system: HL-60(TB); test: Growth inhibition of human HL-60(TB) cells assessed as cell growth at 5X10'-9 M after 48 hrs by sulforhodamine B assay; conditions: HL-60, 48 h, read-out: Activity
[14] = system: HL-60(TB); test: Growth inhibition of human HL-60(TB) cells assessed as cell growth at 5X10'-6 M after 48 hrs by sulforhodamine B assay; conditions: HL-60, 48 h, read-out: Activity
[15] = system: SK-OV-3; test: Growth inhibition of human SKOV3 cells assessed as cell growth at 5X10'-7 M after 48 hrs by sulforhodamine B assay; conditions: SK-OV-3, 48 h, read-out: Activity
[16] = system: SF-295; test: Growth inhibition of human SF295 cells assessed as cell growth at 5X10'-7 M after 48 hrs by sulforhodamine B assay; conditions: SF-295, 48 h, read-out: Activity
[17] = system: SW-620; test: Growth inhibition of human SW620 cells assessed as cell growth at 5X10'-7 M after 48 hrs by sulforhodamine B assay; conditions: SW-620, 48 h, read-out: Activity
[18] = system: HT-29; test: Growth inhibition of human HT-29 cells assessed as cell growth at 5X10'-7 M after 48 hrs by sulforhodamine B assay; conditions: HT-29, 48 h, read-out: Activity
[19] = system: MDA-MB-468; test: Growth inhibition of human MDA-MB-468 cells assessed as cell growth at 5X10'-8 M after 48 hrs by sulforhodamine B assay; conditions: MDA-MB-468, 48 h, read-out: Activity
[20] = system: BT-549; test: Growth inhibition of human BT549 cells assessed as cell growth at 5X10'-8 M after 48 hrs by sulforhodamine B assay; conditions: BT-549, 48 h, read-out: Activity
[21] = system: SK-MEL-5; test: Growth inhibition of human SK-MEL-5 cells assessed as cell growth at 5X10'-8 M after 48 hrs by sulforhodamine B assay; conditions: SK-MEL-5, 48 h, read-out: Activity
[22] = system: SK-MEL-28; test: Growth inhibition of human SK-MEL-28 cells assessed as cell growth at 5X10'-8 M after 48 hrs by sulforhodamine B assay; conditions: SK-MEL-28, 48 h, read-out: Activity
[23] = system: SNB-19; test: Growth inhibition of human SNB19 cells assessed as cell growth at 5X10'-8 M after 48 hrs by sulforhodamine B assay; conditions: SNB-19, 48 h, read-out: Activity
[24] = Growth inhibition of human Hs 578T cells assessed as cell growth at 5X10'-5 M after 48 hrs by sulforhodamine B assay; conditions: read-out: Activity
[25] = system: PC-3; test: Growth inhibition of human PC3 cells assessed as cell growth at 5X10'-5 M after 48 hrs by sulforhodamine B assay; conditions: PC-3, 48 h, read-out: Activity
[26] = system: CAKI-1; test: Growth inhibition of human CAKI-1 cells assessed as cell growth at 5X10'-5 M after 48 hrs by sulforhodamine B assay; conditions: CAKI-1, 48 h, read-out: Activity
[27] = system: A498; test: Growth inhibition of human A498 cells assessed as cell growth at 5X10'-5 M after 48 hrs by sulforhodamine B assay; conditions: A498, 48 h, read-out: Activity
[28] = system: IGROV-1; test: Growth inhibition of human IGROV1 cells assessed as cell growth at 5X10'-5 M after 48 hrs by sulforhodamine B assay; conditions: IGROV-1, 48 h, read-out: Activity
[29] = system: SK-MEL-5; test: Growth inhibition of human SK-MEL-5 cells assessed as cell growth at 5X10'-5 M after 48 hrs by sulforhodamine B assay; conditions: SK-MEL-5, 48 h, read-out: Activity
[30] = system: K562; test: Growth inhibition of human K562 cells assessed as cell growth at 5X10'-8 M after 48 hrs by sulforhodamine B assay; conditions: K562, 48 h, read-out: Activity
[31] = system: DU-145; test: Growth inhibition of human DU145 cells assessed as cell growth at 5X10'-9 M after 48 hrs by sulforhodamine B assay; conditions: DU-145, 48 h, read-out: Activity
[32] = system: UO-31; test: Growth inhibition of human UO31 cells assessed as cell growth at 5X10'-9 M after 48 hrs by sulforhodamine B assay; conditions: UO-31, 48 h, read-out: Activity
[33] = system: RXF 393; test: Growth inhibition of human RXF393 cells assessed as cell growth at 5X10'-9 M after 48 hrs by sulforhodamine B assay; conditions: RXF 393, 48 h, read-out: Activity
[34] = system: OVCAR-4; test: Growth inhibition of human OVCAR4 cells assessed as cell growth at 5X10'-9 M after 48 hrs by sulforhodamine B assay; conditions: OVCAR-4, 48 h, read-out: Activity
[35] = system: SK-MEL-2; test: Growth inhibition of human SK-MEL-2 cells assessed as cell growth at 5X10'-9 M after 48 hrs by sulforhodamine B assay; conditions: SK-MEL-2, 48 h, read-out: Activity
[36] = system: SNB-75; test: Growth inhibition of human SNB75 cells assessed as cell growth at 5X10'-9 M after 48 hrs by sulforhodamine B assay; conditions: SNB-75, 48 h, read-out: Activity

| Structure (SMILES) | growth at 0.005 µM [1] [%] | growth at 0.005 µM [2] [%] | growth at 50 µM [3] [%] | growth at 50 µM [4] [%] | growth at 50 µM [5] [%] | growth at 50 µM [6] [%] | growth at 5 µM [7] [%] | growth at 5 µM [8] [%] | growth at 5 µM [9] [%] | growth at 5 µM [10] [%] | growth at 0.005 µM [11] [%] | growth at 0.005 µM [12] [%] | growth at 0.005 µM [13] [%] | growth at 5 µM [14] [%] | growth at 0.5 µM [15] [%] | growth at 0.5 µM [16] [%] | growth at 0.5 µM [17] [%] | growth at 0.5 µM [18] [%] | growth at 0.05 µM [19] [%] | growth at 0.05 µM [20] [%] | other results |
| --- | --- | --- | --- | --- | --- | --- | --- | --- | --- | --- | --- | --- | --- | --- | --- | --- | --- | --- | --- | --- | --- |
| O=C(Nc1cccc(-n2cc(-c3ccncc3)c(-c3ccc(Cl)c(O)c3)n2)c1)c1ccc(N2CCOCC2)c(C(F)(F)F)c1 | 94 | 95 | 8 | 16 | -15 | 4 | 94 | 41 | 49 | 31 | 85 | 91 | 98 | 39 | 106 | 93 | 106 | 102 | 93 | 101 | growth at 0.05 µM [21]: 93%; growth at 0.05 µM [22]: 102%; growth at 0.05 µM [23]: 104%; growth at 50 µM [24]: 8%; growth at 50 µM [25]: 7%; growth at 50 µM [26]: -15%; growth at 50 µM [27]: 6%; growth at 50 µM [28]: 4%; growth at 50 µM [29]: -70%; growth at 0.05 µM [30]: 100%; growth at 0.005 µM [31]: 98%; growth at 0.005 µM [32]: 88%; growth at 0.005 µM [33]: 105%; growth at 0.005 µM [34]: 93%; growth at 0.005 µM [35]: 96%; growth at 0.005 µM [36]: 94% |
| O=C(Nc1cccc(-n2cc(-c3ccncc3)c(-c3ccc(Cl)c(O)c3)n2)c1)Nc1cc(C(F)(F)F)cc(C(F)(F)F)c1 | 105 | 99 | -75 | -47 | -89 | -4 | -13 | 4 | -70 | -94 | 83 | 95 | 115 | 3 | 98 | 61 | 85 | 72 | 85 | 111 | growth at 0.05 µM [21]: 92%; growth at 0.05 µM [22]: 95%; growth at 0.05 µM [23]: 99%; growth at 50 µM [24]: -40%; growth at 50 µM [25]: -49%; growth at 50 µM [26]: -67%; growth at 50 µM [27]: -95%; growth at 50 µM [28]: -55%; growth at 50 µM [29]: -94%; growth at 0.05 µM [30]: 108%; growth at 0.005 µM [31]: 106%; growth at 0.005 µM [32]: 97%; growth at 0.005 µM [33]: 95%; growth at 0.005 µM [34]: 95%; growth at 0.005 µM [35]: 112%; growth at 0.005 µM [36]: 88% |
| COc1cc(-c2nn(-c3cccc(NC(=O)c4cccc(C(F)(F)F)c4)c3)cc2-c2ccncc2)ccc1Cl | 100 | 92 | 8 | 28 | -22 | 5 | 36 | 23 | -28 | -38 | 90 | 95 | 89 | 16 | 101 | 83 | 89 | 86 | 90 | 98 | growth at 0.05 µM [21]: 97%; growth at 0.05 µM [22]: 102%; growth at 0.05 µM [23]: 96%; growth at 50 µM [24]: 13%; growth at 50 µM [25]: 14%; growth at 50 µM [26]: 17%; growth at 50 µM [27]: -28%; growth at 50 µM [28]: 5%; growth at 50 µM [29]: -51%; growth at 0.05 µM [30]: 94%; growth at 0.005 µM [31]: 98%; growth at 0.005 µM [32]: 82%; growth at 0.005 µM [33]: 99%; growth at 0.005 µM [34]: 94%; growth at 0.005 µM [35]: 96%; growth at 0.005 µM [36]: 90% |

Source: ChEMBL document CHEMBL2440076, “New triarylpyrazoles as broad-spectrum anticancer agents: design, synthesis, and biological evaluation” (Eur J Med Chem, 2013)
